Results: ChEMBL document CHEMBL1201862, “PubChem BioAssay data set” (2004)
The source made the active and inactive calls.

How the values were obtained:
[1] = target: Luciferin 4-monooxygenase (Photinus pyralis, UniProt P08659); experiment: firefly luciferase enzyme inhibitors, dose response, biochemical, luminescence (AID 1891)
[2] = target: 72 kDa type IV collagenase (Homo sapiens, UniProt P08253); experiment: Dose Response validation of uHTS RPN11 inhibitor hits using a MMP-2 Fluorescence assay.; type: functional
Prothrombin = Prothrombin (Bos taurus, UniProt P00735); experiment: thrombin inhibition, dose response, biochemical, fluorescence polarization, uHTS hits (AID 602369); type: functional
[3] = Luminescence Cell-Based Dose Confirmation HTS to Identify Inhibitors of Platelet Dense Granule Release. [Related pubchem assays: 1663 (Primary HTS), 1678 (Summary of Project)]; type: functional
[4] = target: 26S proteasome non-ATPase regulatory subunit 14 (Homo sapiens, UniProt O00487); experiment: inhibition of proteasome subunit RPN11 – biochemical, fluorescence polarization, uHTS hits, confirmation (AID 602368); type: functional
[5] = target: Glucose-6-phosphate 1-dehydrogenase (Homo sapiens, UniProt P11413); experiment: human G6PD enzyme inhibitors, dose response, selectivity assay for P. falciparum G6PD inhibitor project, biochemical, fluorescence (AID 504792); type: functional
Large T antigen = Large T antigen (Simian virus 40, UniProt P03070); type: functional, Betapolyomavirus macacae;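 note: Confirmatory-stage PubChem screen for compounds that inhibit SV40 T antigen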
[6] = target: T1, RNA-binding protein pos-1 (Caenorhabditis elegans, UniProt G5EF15); experiment: inhibitors of POS-1/mex-3 RNA binding, dose response, biochemical, fluorescence polarization (AID 1964);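 note: purified POS-1 fused to maltose binding protein made in E. coli; potency of compounds blocking POS-1 binding to fluorescent RNA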
T1 sequence (G5EF15 whole entry): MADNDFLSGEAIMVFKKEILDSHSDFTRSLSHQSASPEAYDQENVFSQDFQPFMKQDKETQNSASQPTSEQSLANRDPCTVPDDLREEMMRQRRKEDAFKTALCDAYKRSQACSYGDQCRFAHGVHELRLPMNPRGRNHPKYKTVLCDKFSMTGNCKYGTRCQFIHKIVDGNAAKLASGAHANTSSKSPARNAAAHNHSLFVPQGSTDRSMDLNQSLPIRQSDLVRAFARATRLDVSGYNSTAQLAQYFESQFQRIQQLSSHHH

[7] = target: T2, Zinc finger protein mex-5 (Caenorhabditis elegans, UniProt Q9XUB2); experiment: MEX-5/TCR-2 RNA interaction inhibitors, dose response, biochemical, C. elegans, fluorescence polarization (AID 1960)
T2 sequence (Q9XUB2 whole entry): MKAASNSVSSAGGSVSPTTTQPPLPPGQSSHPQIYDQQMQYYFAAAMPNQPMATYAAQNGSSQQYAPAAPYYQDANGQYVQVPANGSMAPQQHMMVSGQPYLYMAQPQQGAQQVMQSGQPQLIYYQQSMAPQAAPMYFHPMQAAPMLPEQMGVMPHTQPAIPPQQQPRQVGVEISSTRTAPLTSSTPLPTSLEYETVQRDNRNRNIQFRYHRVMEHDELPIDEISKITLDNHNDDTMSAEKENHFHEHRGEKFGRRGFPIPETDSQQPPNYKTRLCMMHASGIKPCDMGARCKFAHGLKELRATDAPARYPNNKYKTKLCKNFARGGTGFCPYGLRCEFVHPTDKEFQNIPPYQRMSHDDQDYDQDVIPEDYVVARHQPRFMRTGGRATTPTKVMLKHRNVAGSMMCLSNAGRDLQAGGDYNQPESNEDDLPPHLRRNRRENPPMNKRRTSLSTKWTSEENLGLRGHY

[8] = target: Intestinal-type alkaline phosphatase (Homo sapiens, UniProt P09923); experiment: human intestinal alkaline phosphatase activators, dose response, biochemical, luminescence, uHTS hits (AID 463120); type: functional
[9] = target: T3, Apoptotic protease-activating factor 1 (Homo sapiens, UniProt O14727); type: functional
T3 sequence (O14727 whole entry): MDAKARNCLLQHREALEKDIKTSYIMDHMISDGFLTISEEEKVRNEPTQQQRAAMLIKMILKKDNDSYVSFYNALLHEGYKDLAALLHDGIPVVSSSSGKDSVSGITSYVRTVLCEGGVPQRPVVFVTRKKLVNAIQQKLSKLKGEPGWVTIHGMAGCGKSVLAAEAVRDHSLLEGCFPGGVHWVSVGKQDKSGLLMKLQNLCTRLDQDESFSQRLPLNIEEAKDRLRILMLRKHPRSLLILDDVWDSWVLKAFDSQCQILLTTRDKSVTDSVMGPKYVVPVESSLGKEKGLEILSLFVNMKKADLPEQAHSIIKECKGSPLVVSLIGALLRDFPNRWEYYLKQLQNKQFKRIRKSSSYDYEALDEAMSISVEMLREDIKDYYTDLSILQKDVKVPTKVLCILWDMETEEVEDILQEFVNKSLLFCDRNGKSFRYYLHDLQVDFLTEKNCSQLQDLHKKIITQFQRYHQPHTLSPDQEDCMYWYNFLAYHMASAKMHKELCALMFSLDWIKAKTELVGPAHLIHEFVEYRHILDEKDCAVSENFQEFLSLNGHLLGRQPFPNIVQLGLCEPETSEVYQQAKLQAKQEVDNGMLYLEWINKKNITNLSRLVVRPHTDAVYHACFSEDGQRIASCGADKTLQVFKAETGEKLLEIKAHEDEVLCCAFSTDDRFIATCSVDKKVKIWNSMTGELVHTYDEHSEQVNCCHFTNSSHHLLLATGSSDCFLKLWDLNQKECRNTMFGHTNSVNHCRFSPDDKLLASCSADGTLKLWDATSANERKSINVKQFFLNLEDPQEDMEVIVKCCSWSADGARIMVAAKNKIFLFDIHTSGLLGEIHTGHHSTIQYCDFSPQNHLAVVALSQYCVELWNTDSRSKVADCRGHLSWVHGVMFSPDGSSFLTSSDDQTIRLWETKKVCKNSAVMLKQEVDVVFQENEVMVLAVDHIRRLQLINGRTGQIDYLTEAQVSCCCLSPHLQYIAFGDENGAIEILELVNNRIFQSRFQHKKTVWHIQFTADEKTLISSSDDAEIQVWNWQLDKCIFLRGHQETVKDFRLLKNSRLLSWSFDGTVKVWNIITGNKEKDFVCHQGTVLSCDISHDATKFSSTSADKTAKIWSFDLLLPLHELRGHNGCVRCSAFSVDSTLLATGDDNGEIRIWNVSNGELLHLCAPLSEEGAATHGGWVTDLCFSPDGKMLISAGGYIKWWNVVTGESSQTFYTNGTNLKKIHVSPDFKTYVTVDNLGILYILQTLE

Genome polyprotein = Genome polyprotein (dengue virus type 2, UniProt P29990); experiment: Dengue-2 NS5 methyltransferase inhibitors, primary screen, biochemical, confirmation dose response (AID 588689); type: functional
[10] = target: DNA (cytosine-5)-methyltransferase 1 (Homo sapiens, UniProt P26358); experiment: DNMT1 methyltransferase inhibitors, confirmation, biochemical, fluorescent molecular beacon (AID 602386); type: functional
Streptokinase A = target: T4, Streptokinase A (Streptococcus pyogenes serotype M1, UniProt P10520); experiment: S. pyogenes streptokinase expression inhibitors, potency, dose response, plasminogen activation absorbance, OD405 (AID 1914); type: functional, Streptococcus pyogenes M1 GAS;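 note: secreted streptokinase activity via plasminogen activation per viability signal from cell pellet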
T4 sequence (P10520 whole entry): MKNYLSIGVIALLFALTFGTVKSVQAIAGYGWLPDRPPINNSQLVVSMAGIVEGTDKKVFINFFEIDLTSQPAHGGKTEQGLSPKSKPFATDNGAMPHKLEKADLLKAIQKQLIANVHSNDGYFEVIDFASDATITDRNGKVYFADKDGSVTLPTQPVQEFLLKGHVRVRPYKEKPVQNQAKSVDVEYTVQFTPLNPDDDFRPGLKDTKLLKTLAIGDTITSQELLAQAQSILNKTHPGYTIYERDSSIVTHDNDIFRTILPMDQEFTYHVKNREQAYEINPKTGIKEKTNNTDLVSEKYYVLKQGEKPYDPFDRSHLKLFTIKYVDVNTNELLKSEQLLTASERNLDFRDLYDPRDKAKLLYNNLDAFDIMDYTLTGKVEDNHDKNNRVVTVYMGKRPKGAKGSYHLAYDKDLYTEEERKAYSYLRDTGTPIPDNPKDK

Streptococcus = experiment: Group A Streptococcus viability loss, dose response, counter-screen for streptokinase expression inhibitor project, luminescence, BacTiterGlo (AID 1915); type: functional, organism-based;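 note: potency for reduction of bacterial viability or growth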
[11] = tested on: Streptococcus sp. 'group A'; experiment: growth inhibition of control SK(-) GAS strain, dose response, counter-screen for streptokinase expression inhibitor project, luminescence, kanamycin, BacTiterGlo, confirmation (AID 1900); type: functional, organism-based
[12] = StAR promoter reporter inhibition counter-screen, dose response, counter-screen for LRH-1 inverse agonist project, cell-based, luminescence, luciferase reporter (AID 651969); type: functional
[13] = target: Nuclear receptor subfamily 5 group A member 2 (Homo sapiens, UniProt O00482); type: functional, cell-based;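 note: HEK293T cells transfected with LRH-1 and a StAR promoter luciferase reporter; potency for inhibitors that lower LRH-1 driven reporter light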
Steroidogenic factor 1 = Steroidogenic factor 1 (Homo sapiens, UniProt Q13285); experiment: Counterscreen for inverse agonists of the liver receptor homolog-1 (LRH-1; NR5A2): Luminescence-based cell-based high throughput dose response assay to identify inverse agonists of the Steroidogenic Factor 1 Nuclear Receptor (SF1; NR5A1).; type: functional
[14] = target: T5, Carboxy-terminal domain RNA polymerase II polypeptide A small phosphatase 1 (Homo sapiens, UniProt Q9GZU7); experiment: inhibitors of CTDSP1, concentration-response testing, biochemical assay, absorbance-based, actives from ultra-high-throughput screening (AID 540297); type: functional
T5 sequence (Q9GZU7 whole entry): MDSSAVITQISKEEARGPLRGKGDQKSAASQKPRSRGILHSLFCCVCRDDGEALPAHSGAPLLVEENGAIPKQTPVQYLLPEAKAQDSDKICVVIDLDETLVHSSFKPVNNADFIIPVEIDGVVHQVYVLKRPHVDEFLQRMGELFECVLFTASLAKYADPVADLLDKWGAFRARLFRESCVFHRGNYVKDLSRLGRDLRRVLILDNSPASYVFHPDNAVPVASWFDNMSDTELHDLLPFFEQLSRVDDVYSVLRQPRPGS

[15] = target: Dual specificity protein phosphatase 3 (Homo sapiens, UniProt P51452); experiment: VHR phosphatase inhibition, dose response, selectivity assay for STEP inhibitor project, biochemical (AID 602374); type: functional; details: read-out: IC50_Mean
[16] = target: T6, Tyrosine-protein phosphatase non-receptor type 5 (Homo sapiens, UniProt P54829); experiment: STEP phosphatase inhibitors, confirmation, biochemical, fluorescence intensity, uHTS hits (AID 602372); type: functional; details: read-out: IC50_Mean
T6 sequence (P54829 whole entry): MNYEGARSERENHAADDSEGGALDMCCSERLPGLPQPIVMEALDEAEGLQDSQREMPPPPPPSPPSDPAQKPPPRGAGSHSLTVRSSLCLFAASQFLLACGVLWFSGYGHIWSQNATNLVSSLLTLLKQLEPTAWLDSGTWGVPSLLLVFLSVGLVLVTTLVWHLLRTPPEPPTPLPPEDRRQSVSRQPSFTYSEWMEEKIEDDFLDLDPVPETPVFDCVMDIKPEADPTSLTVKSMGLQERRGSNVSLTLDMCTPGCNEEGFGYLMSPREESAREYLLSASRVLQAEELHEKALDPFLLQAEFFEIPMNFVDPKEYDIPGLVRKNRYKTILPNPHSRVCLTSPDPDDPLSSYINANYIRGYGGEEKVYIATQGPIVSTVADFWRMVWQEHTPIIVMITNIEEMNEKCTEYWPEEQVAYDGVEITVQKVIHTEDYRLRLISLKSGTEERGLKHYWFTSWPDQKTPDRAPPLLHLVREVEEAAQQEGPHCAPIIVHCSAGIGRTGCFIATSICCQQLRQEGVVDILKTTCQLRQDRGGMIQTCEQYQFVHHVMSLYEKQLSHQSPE

[17] = target: T7, Tyrosine-protein phosphatase non-receptor type 11 (Homo sapiens, UniProt Q06124); experiment: SHP2 phosphatase inhibition, dose response, selectivity assay for STEP inhibitor project, biochemical (AID 602367); type: functional; details: read-out: IC50_Mean
T7 sequence (Q06124 whole entry): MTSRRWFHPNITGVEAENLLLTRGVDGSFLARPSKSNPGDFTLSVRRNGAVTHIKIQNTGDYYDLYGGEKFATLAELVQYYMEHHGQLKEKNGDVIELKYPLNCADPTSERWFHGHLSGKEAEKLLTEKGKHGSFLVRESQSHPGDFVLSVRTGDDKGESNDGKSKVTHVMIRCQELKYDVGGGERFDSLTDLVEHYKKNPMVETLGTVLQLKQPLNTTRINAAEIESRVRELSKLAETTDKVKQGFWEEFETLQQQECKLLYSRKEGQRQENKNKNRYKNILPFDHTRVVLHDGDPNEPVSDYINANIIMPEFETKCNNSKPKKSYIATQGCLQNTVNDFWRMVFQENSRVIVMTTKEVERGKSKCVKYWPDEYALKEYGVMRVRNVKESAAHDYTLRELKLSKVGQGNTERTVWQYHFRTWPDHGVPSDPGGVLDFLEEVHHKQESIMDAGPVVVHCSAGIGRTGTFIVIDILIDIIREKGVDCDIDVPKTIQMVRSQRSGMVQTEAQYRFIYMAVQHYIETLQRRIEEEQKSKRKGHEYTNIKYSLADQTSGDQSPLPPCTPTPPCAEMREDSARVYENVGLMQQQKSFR

Chain of 26S proteasome non-ATPase regulatory subunit 14 (O00487 whole entry): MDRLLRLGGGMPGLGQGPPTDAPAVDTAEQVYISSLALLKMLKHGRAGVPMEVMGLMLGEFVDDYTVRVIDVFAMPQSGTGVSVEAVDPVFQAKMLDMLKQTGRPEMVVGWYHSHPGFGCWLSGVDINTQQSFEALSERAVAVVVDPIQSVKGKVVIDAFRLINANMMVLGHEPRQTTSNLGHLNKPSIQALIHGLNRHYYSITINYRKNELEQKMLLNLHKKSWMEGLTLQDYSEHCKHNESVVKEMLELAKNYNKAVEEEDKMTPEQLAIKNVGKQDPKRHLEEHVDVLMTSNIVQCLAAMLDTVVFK
Chain of 72 kDa type IV collagenase (P08253 whole entry): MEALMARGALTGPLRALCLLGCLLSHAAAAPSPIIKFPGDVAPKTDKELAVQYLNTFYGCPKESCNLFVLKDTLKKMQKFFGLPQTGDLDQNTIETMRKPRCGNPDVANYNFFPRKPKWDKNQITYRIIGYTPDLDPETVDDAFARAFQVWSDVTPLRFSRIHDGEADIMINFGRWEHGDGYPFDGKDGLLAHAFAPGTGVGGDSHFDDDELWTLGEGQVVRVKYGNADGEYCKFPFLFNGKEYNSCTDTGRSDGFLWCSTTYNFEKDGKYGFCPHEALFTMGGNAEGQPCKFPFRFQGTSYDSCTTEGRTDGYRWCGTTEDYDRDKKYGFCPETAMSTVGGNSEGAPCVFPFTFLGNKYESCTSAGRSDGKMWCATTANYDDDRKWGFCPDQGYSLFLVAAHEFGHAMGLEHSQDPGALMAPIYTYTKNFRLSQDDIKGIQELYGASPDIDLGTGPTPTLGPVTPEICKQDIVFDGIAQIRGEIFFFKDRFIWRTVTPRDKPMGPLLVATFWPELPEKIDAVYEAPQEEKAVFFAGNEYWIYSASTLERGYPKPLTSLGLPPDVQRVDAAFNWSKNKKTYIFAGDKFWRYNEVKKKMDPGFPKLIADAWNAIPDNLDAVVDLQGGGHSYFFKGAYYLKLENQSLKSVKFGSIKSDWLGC
Chain of DNA (cytosine-5)-methyltransferase 1 (P26358 whole entry): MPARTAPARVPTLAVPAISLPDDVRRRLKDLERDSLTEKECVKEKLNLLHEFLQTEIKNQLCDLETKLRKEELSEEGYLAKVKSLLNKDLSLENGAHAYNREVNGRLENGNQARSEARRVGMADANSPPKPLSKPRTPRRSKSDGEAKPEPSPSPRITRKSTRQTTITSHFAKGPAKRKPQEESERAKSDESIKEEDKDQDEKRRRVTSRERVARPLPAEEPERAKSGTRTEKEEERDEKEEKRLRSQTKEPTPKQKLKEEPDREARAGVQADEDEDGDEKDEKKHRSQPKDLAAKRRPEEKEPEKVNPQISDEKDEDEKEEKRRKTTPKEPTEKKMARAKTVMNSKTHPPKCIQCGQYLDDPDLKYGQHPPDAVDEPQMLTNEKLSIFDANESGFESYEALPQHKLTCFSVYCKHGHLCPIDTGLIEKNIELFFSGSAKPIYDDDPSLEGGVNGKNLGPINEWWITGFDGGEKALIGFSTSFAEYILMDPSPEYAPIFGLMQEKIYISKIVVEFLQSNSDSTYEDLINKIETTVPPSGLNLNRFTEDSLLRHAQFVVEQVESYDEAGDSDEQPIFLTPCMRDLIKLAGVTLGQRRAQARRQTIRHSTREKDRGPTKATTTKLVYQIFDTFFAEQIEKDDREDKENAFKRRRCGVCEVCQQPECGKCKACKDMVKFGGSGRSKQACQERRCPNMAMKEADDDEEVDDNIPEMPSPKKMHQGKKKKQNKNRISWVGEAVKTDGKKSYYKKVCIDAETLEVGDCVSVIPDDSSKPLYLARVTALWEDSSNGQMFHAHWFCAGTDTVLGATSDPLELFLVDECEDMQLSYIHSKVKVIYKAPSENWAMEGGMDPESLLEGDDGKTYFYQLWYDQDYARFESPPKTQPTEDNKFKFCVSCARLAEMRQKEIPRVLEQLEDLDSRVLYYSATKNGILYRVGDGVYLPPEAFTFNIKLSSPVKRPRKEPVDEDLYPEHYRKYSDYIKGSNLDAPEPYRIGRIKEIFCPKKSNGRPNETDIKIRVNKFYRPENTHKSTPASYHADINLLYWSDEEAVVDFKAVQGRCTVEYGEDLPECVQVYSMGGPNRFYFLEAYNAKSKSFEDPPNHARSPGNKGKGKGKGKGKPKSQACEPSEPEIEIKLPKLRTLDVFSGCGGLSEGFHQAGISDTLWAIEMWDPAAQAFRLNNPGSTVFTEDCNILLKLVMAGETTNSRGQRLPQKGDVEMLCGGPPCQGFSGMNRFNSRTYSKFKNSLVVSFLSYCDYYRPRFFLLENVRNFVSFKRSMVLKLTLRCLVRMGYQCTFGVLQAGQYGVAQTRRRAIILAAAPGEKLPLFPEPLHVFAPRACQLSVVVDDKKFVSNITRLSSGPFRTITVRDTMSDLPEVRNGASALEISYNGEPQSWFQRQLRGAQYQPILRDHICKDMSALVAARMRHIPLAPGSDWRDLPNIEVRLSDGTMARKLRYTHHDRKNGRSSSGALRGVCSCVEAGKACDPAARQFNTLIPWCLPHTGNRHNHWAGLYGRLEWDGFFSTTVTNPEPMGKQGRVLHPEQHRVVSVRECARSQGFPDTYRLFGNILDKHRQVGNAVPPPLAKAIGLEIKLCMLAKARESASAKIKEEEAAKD
Chain of Dual specificity protein phosphatase 3 (P51452 whole entry): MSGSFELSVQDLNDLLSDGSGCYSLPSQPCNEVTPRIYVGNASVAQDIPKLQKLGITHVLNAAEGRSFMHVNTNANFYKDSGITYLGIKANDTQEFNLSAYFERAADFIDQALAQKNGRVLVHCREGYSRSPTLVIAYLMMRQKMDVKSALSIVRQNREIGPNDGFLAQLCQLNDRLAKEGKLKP
Chain of Glucose-6-phosphate 1-dehydrogenase (P11413 whole entry): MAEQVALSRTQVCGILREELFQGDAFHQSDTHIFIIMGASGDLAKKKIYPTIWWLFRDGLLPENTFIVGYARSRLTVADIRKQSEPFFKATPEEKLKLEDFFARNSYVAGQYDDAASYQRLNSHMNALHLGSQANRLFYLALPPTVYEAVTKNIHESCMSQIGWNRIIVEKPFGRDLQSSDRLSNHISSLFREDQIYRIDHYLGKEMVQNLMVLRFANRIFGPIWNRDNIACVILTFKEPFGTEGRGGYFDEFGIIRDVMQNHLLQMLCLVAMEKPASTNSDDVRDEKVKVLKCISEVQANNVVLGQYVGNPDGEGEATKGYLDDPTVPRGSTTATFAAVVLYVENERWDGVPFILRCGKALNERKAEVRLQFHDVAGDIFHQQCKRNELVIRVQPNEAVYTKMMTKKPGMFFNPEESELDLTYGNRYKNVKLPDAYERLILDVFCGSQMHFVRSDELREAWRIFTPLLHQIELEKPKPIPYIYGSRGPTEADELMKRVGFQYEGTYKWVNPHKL
Chain of Genome polyprotein (P29990 2492-3391 limits assumed): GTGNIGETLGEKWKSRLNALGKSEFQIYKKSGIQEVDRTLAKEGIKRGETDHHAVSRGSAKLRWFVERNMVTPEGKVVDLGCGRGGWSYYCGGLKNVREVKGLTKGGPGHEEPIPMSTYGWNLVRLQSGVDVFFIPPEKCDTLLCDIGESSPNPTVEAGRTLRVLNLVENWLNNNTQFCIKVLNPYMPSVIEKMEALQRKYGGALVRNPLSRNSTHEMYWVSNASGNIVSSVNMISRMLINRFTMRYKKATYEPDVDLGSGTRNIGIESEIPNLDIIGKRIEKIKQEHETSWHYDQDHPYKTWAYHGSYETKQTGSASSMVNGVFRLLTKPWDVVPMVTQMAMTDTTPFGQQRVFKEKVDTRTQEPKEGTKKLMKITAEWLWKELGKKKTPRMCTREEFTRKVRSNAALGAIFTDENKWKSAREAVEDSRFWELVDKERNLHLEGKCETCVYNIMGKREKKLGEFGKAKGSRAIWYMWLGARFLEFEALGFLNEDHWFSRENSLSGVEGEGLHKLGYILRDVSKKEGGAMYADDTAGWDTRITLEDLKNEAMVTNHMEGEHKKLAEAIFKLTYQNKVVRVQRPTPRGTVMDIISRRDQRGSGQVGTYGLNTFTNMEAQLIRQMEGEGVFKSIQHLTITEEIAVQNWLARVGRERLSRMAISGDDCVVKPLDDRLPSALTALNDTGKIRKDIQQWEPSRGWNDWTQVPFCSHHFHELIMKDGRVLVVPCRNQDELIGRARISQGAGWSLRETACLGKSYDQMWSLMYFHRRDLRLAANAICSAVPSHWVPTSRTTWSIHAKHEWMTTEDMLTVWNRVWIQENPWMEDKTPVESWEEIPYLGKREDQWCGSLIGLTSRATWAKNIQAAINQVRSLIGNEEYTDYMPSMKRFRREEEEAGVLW
Chain of Large T antigen (P03070 whole entry, the tested form may be a part): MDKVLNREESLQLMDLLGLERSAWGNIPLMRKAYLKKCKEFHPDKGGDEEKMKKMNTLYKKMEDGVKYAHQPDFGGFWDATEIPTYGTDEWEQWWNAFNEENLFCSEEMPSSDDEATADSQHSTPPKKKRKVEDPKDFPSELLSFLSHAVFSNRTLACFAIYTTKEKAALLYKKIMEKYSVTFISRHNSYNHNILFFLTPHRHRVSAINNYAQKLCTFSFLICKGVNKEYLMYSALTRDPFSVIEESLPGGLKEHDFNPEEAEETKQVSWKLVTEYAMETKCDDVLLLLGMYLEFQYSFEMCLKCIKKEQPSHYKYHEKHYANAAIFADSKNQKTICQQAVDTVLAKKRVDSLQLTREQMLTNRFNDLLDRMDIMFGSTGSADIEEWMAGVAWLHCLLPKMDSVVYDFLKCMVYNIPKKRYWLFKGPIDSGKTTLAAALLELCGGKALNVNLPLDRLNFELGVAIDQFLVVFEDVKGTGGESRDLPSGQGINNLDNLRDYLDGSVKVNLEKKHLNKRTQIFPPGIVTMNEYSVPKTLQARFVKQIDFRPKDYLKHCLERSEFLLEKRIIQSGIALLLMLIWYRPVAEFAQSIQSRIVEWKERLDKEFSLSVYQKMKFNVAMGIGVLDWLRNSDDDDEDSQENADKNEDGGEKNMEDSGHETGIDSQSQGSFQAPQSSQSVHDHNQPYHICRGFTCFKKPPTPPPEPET

COC(=O)c1c(-c2cccnc2)csc1NC(=O)c1ccc2c(c1)OCO2
EC50 [1]: 0.77 µM (active)
IC50 [2]: > 100 µM (inactive)
IC50 (Prothrombin): 96.1 µM (active)
EC50 [3]: 8.11 µM (active)
IC50 [4]: 37.5 µM (active)

COc1cc(/C=C2\SC(c3ccc(C)cc3)=NC2=O)cc(OC)c1O
IC50 [5]: 63.1 µM (inactive)
IC50 (Large T antigen): 16.5 µM (active)
IC50 [2]: 42.1 µM (active)
IC50 (Prothrombin): 1.37 µM (active)
IC50 [4]: 2.18 µM (active)

Cc1ccc(-n2ncc3c(NNC(=O)c4ccco4)ncnc32)cc1C
EC50 [6]: > 300 µM (not active)
EC50 [7]: 142 µM (active)
EC50 [8]: 6.81 µM (active)

Cc1ccc(OCC(=O)N(Cc2nnc(-c3ccccc3Cl)o2)C2CC2)cc1C
IC50 [9]: 31.9 µM (active)

COc1ccccc1-c1cc(C(=O)Nc2cc(C)nn2-c2ccccc2)no1
IC50 [2]: > 100 µM (inactive)
IC50 (Prothrombin): > 100 µM (inactive)
IC50 [4]: 36 µM (active)

O=C(O)CN1C(=O)/C(=C\c2cc(Br)ccc2OCc2ccccc2Cl)SC1=S
IC50 (Genome polyprotein): 24.3 µM (active)
IC50 [10]: 4.7 µM (active)
EC50 (Streptokinase A): > 150 µM (not active)
EC50 (Streptococcus): 5.9 µM (active)
EC50 [11]: 1.97 µM (active)

CCOc1ccc(NC(=O)CSc2nncc(=O)n2N)cc1
IC50 [12]: 35.9 µM (inactive)
IC50 [13]: 35.9 µM (inactive)
IC50 (Steroidogenic factor 1): 12 µM (inactive)

O=C(N/N=C/c1ccc(Br)cc1)c1ccc(Br)o1
IC50 [14]: 6.85 µM (active)
IC50 [15]: 8.79 µM (active)
IC50 [16]: 17.1 µM (active)
IC50 [17]: 9.11 µM (active)

O=C(CNC(=O)c1ccc([N+](=O)[O-])cc1)N/N=C\c1ccc(OC(=O)c2ccccc2)cc1
IC50 [10]: > 99 µM (inactive)
